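Compound exposure: 48 hours, 5 concentrations, 96-well plates. GI50 is the concentration that inhibits growth by half. TGI is the concentration that stops growth completely.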
Key:
Test in all cases: growth of human tumour cells (NCI), 48 h
NCI-H226 lung = system: NCI-H226 lung
BT-549 breast = system: BT-549 breast
SNB-75 CNS = system: SNB-75 CNS
TK-10 renal = system: TK-10 renal
HS 578T breast = system: HS 578T breast
NCI/ADR-RES ovarian = system: NCI/ADR-RES ovarian
SNB-19 CNS = system: SNB-19 CNS
ACHN renal = system: ACHN renal
T-47D breast = system: T-47D breast
RPMI-8226 leukemia = system: RPMI-8226 leukemia
SK-MEL-28 melanoma = system: SK-MEL-28 melanoma
LOX IMVI melanoma = system: LOX IMVI melanoma
NCI-H23 lung = system: NCI-H23 lung
CAKI-1 renal = system: CAKI-1 renal
OVCAR-8 ovarian = system: OVCAR-8 ovarian
IGROV1 ovarian = system: IGROV1 ovarian
SF-295 CNS = system: SF-295 CNS
OVCAR-4 ovarian = system: OVCAR-4 ovarian
UACC-257 melanoma = system: UACC-257 melanoma
RXF 393 renal = system: RXF 393 renal
SF-539 CNS = system: SF-539 CNS
UO-31 renal = system: UO-31 renal
NCI-H522 lung = system: NCI-H522 lung
EKVX NSCLC = system: EKVX NSCLC
HOP-62 NSCLC = system: HOP-62 NSCLC
MDA-MB-231 breast = system: MDA-MB-231 breast
SK-OV-3 ovarian = system: SK-OV-3 ovarian
HL-60(TB) leukemia = system: HL-60(TB) leukemia
MDA-MB-435 = system: MDA-MB-435
COLO 205 colon = system: COLO 205 colon
OVCAR-5 ovarian = system: OVCAR-5 ovarian
KM12 colon = system: KM12 colon
HT29 colon = system: HT29 colon
MALME-3M melanoma = system: MALME-3M melanoma
A549 NSCLC = system: A549 NSCLC
PC-3 prostate = system: PC-3 prostate
SF-268 CNS = system: SF-268 CNS
M14 melanoma = system: M14 melanoma
U251 CNS = system: U251 CNS
DU-145 prostate = system: DU-145 prostate
SK-MEL-5 melanoma = system: SK-MEL-5 melanoma
HCT-15 colon = system: HCT-15 colon
OVCAR-3 ovarian = system: OVCAR-3 ovarian
HOP-92 NSCLC = system: HOP-92 NSCLC
SW-620 colon = system: SW-620 colon
UACC-62 melanoma = system: UACC-62 melanoma
786-0 renal = system: 786-0 renal
HCC-2998 colon = system: HCC-2998 colon
HCT-116 colon = system: HCT-116 colon
MOLT-4 leukemia = system: MOLT-4 leukemia
SN12C renal = system: SN12C renal
NCI-H460 lung = system: NCI-H460 lung
MCF7 breast = system: MCF7 breast
SR leukemia = system: SR leukemia
SK-MEL-2 melanoma = system: SK-MEL-2 melanoma
K-562 leukemia = system: K-562 leukemia
CCRF-CEM leukemia = system: CCRF-CEM leukemia
A498 renal = system: A498 renal

## COc1cccc(-c2nn(-c3ccccc3)cc2-c2ccnc(NCCNC(=O)Nc3ccc(Cl)c(Cl)c3)c2)c1
NCI-H226 lung
  GI50: 3.63 µM
  TGI: 18.7 µM
BT-549 breast
  GI50: 2.94 µM
  TGI: 10.4 µM
SNB-75 CNS
  GI50: 1.43 µM
  TGI: 5.96 µM
TK-10 renal
  GI50: 4.78 µM
  TGI: 18.9 µM
HS 578T breast
  GI50: 1.96 µM
  TGI: 5.19 µM
NCI/ADR-RES ovarian
  GI50: 2.08 µM
  TGI: 5.64 µM
SNB-19 CNS
  GI50: 2.63 µM
  TGI: 9.8 µM
ACHN renal
  GI50: 2.79 µM
  TGI: 10.2 µM
T-47D breast
  GI50: 3.85 µM
  TGI: 24.7 µM
RPMI-8226 leukemia
  GI50: 2.6 µM
  TGI: 7.52 µM
SK-MEL-28 melanoma
  GI50: 2.03 µM
  TGI: 4.59 µM
LOX IMVI melanoma
  GI50: 1.66 µM
  TGI: 3.21 µM
NCI-H23 lung
  GI50: 2.46 µM
  TGI: 11.6 µM
CAKI-1 renal
  GI50: 2.79 µM
  TGI: 11.1 µM
OVCAR-8 ovarian
  GI50: 2.98 µM
  TGI: 11.2 µM
IGROV1 ovarian
  GI50: 3.61 µM
  TGI: 15.6 µM
SF-295 CNS
  GI50: 2.41 µM
  TGI: 7.28 µM
OVCAR-4 ovarian
  GI50: 3.25 µM
  TGI: 16.2 µM
UACC-257 melanoma
  GI50: 3.63 µM
  TGI: 20.3 µM
RXF 393 renal
  GI50: 1.2 µM
  TGI: 3.15 µM
SF-539 CNS
  GI50: 1.93 µM
  TGI: 4.17 µM
UO-31 renal
  GI50: 1.44 µM
  TGI: 5.03 µM
NCI-H522 lung
  GI50: 2.18 µM
  TGI: 5.96 µM
EKVX NSCLC
  GI50: 2.48 µM
  TGI: 16.7 µM
HOP-62 NSCLC
  GI50: 3.39 µM
  TGI: 12.7 µM
MDA-MB-231 breast
  GI50: 2.04 µM
  TGI: 5.04 µM
SK-OV-3 ovarian
  GI50: 4.06 µM
  TGI: 14.4 µM
HL-60(TB) leukemia
  GI50: 2.43 µM
  TGI: 6.85 µM
MDA-MB-435
  GI50: 1.86 µM
  TGI: 4.26 µM
COLO 205 colon
  GI50: 2.07 µM
  TGI: 4.44 µM
OVCAR-5 ovarian
  GI50: 2.25 µM
  TGI: 10.1 µM
KM12 colon
  GI50: 2.27 µM
  TGI: 5.79 µM
HT29 colon
  GI50: 1.91 µM
  TGI: 5.39 µM
MALME-3M melanoma
  GI50: 1.89 µM
  TGI: 4.66 µM
A549 NSCLC
  GI50: 3.38 µM
  TGI: 12.5 µM
PC-3 prostate
  GI50: 2.5 µM
  TGI: 8.36 µM
SF-268 CNS
  GI50: 2.43 µM
  TGI: 10.3 µM
M14 melanoma
  GI50: 1.67 µM
  TGI: 4.05 µM
U251 CNS
  GI50: 2.65 µM
  TGI: 7.73 µM
DU-145 prostate
  GI50: 3.52 µM
  TGI: 12.7 µM
SK-MEL-5 melanoma
  GI50: 1.95 µM
  TGI: 3.71 µM
HCT-15 colon
  GI50: 3 µM
  TGI: 10.7 µM
OVCAR-3 ovarian
  GI50: 2.59 µM
  TGI: 8.2 µM
HOP-92 NSCLC
  GI50: 1.37 µM
  TGI: 5.48 µM
SW-620 colon
  GI50: 2.7 µM
  TGI: 11.1 µM
UACC-62 melanoma
  GI50: 1.84 µM
  TGI: 4.51 µM
786-0 renal
  GI50: 1.55 µM
  TGI: 3.28 µM
HCC-2998 colon
  GI50: 1.88 µM
  TGI: 3.78 µM
HCT-116 colon
  GI50: 2.17 µM
  TGI: 5.33 µM
MOLT-4 leukemia
  GI50: 2.31 µM
  TGI: 7.11 µM
SN12C renal
  GI50: 2.39 µM
  TGI: 5.96 µM
NCI-H460 lung
  GI50: 1.88 µM
  TGI: 4.33 µM
MCF7 breast
  GI50: 2.46 µM
  TGI: 11.7 µM
SR leukemia
  GI50: 1.51 µM
  TGI: 6.02 µM
SK-MEL-2 melanoma
  GI50: 2.09 µM
  TGI: 5.17 µM
K-562 leukemia
  GI50: 3.09 µM
  TGI: 11.1 µM

## Oc1c2cccc1Cc1cccc3c1OCCOCCOCCOCCOc1c(cccc1Cc1cccc(c1O)C3)C2
NCI-H226 lung
  TGI: 81 µM
BT-549 breast
  TGI: > 100 µM
SNB-75 CNS
  TGI: 87.3 µM
TK-10 renal
  TGI: > 100 µM
HS 578T breast
  TGI: > 100 µM
NCI/ADR-RES ovarian
  TGI: > 100 µM
SNB-19 CNS
  TGI: > 100 µM
ACHN renal
  TGI: > 100 µM
T-47D breast
  TGI: > 100 µM
RPMI-8226 leukemia
  TGI: > 100 µM
SK-MEL-28 melanoma
  TGI: > 100 µM
LOX IMVI melanoma
  TGI: > 100 µM
NCI-H23 lung
  TGI: > 100 µM
CAKI-1 renal
  TGI: > 100 µM
OVCAR-8 ovarian
  TGI: > 100 µM
IGROV1 ovarian
  TGI: > 100 µM
SF-295 CNS
  TGI: > 100 µM
OVCAR-4 ovarian
  TGI: > 100 µM
UACC-257 melanoma
  TGI: > 100 µM
RXF 393 renal
  TGI: > 100 µM
SF-539 CNS
  TGI: > 100 µM
UO-31 renal
  TGI: > 100 µM
NCI-H522 lung
  TGI: > 100 µM
EKVX NSCLC
  TGI: > 100 µM
HOP-62 NSCLC
  TGI: > 100 µM
MDA-MB-231 breast
  TGI: > 100 µM
SK-OV-3 ovarian
  TGI: > 100 µM
MDA-MB-435
  TGI: > 100 µM
CCRF-CEM leukemia
  TGI: > 100 µM
COLO 205 colon
  TGI: > 100 µM
OVCAR-5 ovarian
  TGI: > 100 µM
KM12 colon
  TGI: > 100 µM
HT29 colon
  TGI: > 100 µM
A549 NSCLC
  TGI: > 100 µM
PC-3 prostate
  TGI: > 100 µM
SF-268 CNS
  TGI: > 100 µM
A498 renal
  TGI: > 100 µM
M14 melanoma
  TGI: > 100 µM
U251 CNS
  TGI: > 100 µM
DU-145 prostate
  TGI: > 100 µM
SK-MEL-5 melanoma
  TGI: > 100 µM
HCT-15 colon
  TGI: > 100 µM
OVCAR-3 ovarian
  TGI: > 100 µM
HOP-92 NSCLC
  TGI: > 100 µM
SW-620 colon
  TGI: > 100 µM
UACC-62 melanoma
  TGI: > 100 µM
786-0 renal
  TGI: > 100 µM
HCC-2998 colon
  TGI: > 100 µM
HCT-116 colon
  TGI: > 100 µM
MOLT-4 leukemia
  TGI: > 100 µM
SN12C renal
  TGI: > 100 µM
MCF7 breast
  TGI: > 100 µM
SR leukemia
  TGI: > 100 µM
SK-MEL-2 melanoma
  TGI: > 100 µM
K-562 leukemia
  TGI: > 100 µM

Source: PubChem BioAssay (NCI)
